Assay [1] relates to metaphysis tissue of the femur. Put plainly: Bone resorption (PTH or prostaglandin E2): bone calcium level in cultured metaphysis tissue. Format: cell-based, Wistar male rats. The method, then:
The femurs were extracted from rats (Wistar male rats; 4 to 5 weeks old) (purchased from Japan SLC Co., Ltd. and fed with solid Oriental yeast (MF)) under anesthesia with ether under a germfree condition. The femurs were each washed with 0.25 M sucrose solution, and then divided into the diaphysis (cortical bone) and metaphysis (cancellous bone). The bone tissue pieces were cultured in a culture medium (Dulbecco's modified culture medium containing 5% of glucose; serum-free medium) containing. β-cryptoxanthin, etc. at […] in an incubator filled with 5% CO2-95% air for 48 hours. β-cryptoxanthin used was “β-cryptoxanthin” of Extrasynthase Co., cycloheximide used was “Cycloheximide” of Sigma Co. Ltd., β-carotene was “β-carotene” of Sigma ? , xanthine was “Xanthine” of Sigma Co, Ltd., parathormone was “Parathormone” of Sigma Co. Ltd. and prostaglandin E2 was “Prostaglandin E2” of Sigma Co. Ltd. In the control, only the culture medium was used without β-cryptoxanthin or the like.
(§1) Bone calcium level in the bone tissue was determined. After the culture in the incubator, the tissue pieces were washed with 0.25 M sucrose solution and dried and then the bone was weighed. Then concentrated nitric acid was added to the tissue pieces. After the incineration at 120° C. for 12 hours, the bone calcium level was determined with an atomic absorption photometer (“Perkin-Elmer 303” of Perkin-Elmer Co.).
The bone mineral dissolution-inhibiting effect of β-cryptoxanthin was examined. […] PTH also has a pathophysiologic role on the expression of osteoporosis caused by the aging. It is known that prostaglandin E2 also causes physiologic bone mineral dissolution. The diaphysis or metaphysis tissue of the femur was cultured in the presence of 10^−7 M PTH or 10^−5 M prostaglandin E2 for 48 hours and then calcium level in the bone tissue was determined. In another experiment, the culture was conducted in the same manner as that described above in the coexistence of them and β-cryptoxanthin (10^−8 M to 10^−6 M) and then calcium level in the bone tissue was determined. In each test group, the determination was conducted 6 to 8 times and the results were represented by the average value and the standard error. The significant difference was determined by Student's t-test. The result was compared with that of the control. When P value was not higher than 0.01 (*) as compared with the control or it is not higher than 0.1 (#) as compared with that of prostaglandin E2, the results were statistically significant.

The test system of assay [2] is rats, femoral diaphysis tissue. The assay is described as follows: Oral administration to rats: bone alkaline phosphatase activity in diaphysis tissue. The settings on record: for Bone alkaline phosphatase activity: diaphysis tissue. The assay is classed as in vivo, Wistar male rats. The protocol:
(§2) The expression level of alkaline phosphatase, which is the most important enzyme for the acceleration of the calcification of bones, was examined. The tissue pieces cultured in the incubator were washed in 0.25 M sucrose solution, then pulverized in 3 ml of 65 mM barbital buffer (pH 7-4) and treated with ultrasonic waves. The resultant liquid was centrifuged. The supernatant, as the enzyme solution, was determined by a method of Walter ad Schutt in Method of Enzymatic Analysis, Vol. 1-2, p. 856, Academic Press, New York, 1965). Namely, this method was carried out as follows: p-nitrophenylphosphoric acid was used as the substrate. 0.05 ml of the enzyme solution was added to 2 ml of diethanolamine buffer (pH 9.8). After the incubation at 37° C. for 30 minutes, 10 ml of 0.05 N NaOH was added to the mixture. The absorbance (405 nm) was determined with a spectrophotometer to determine bone alkaline phosphatase activity of a bone remedy or a compound known to be effective for the bones.
(§3) A solution of β-cryptoxanthin in corn oil having one of three kinds of concentration (10, 25 and 50 μg/ml corn oil) was orally administered to rats (Wistar male rats; 4 to 5 weeks old) in an amount/100 g body weight with a probe once a day for 7 days. The rats were sacrificed 24 hours after the final administration. The femurs were excised. The muscles, etc. were taken out and each femur was divided into diaphysis and metaphysis to determine the bone components.
(§4) Tests were conducted to examine whether the bone components are increased by the oral administration of β-cryptoxanthin to rats or not. β-cryptoxanthin was administered for 7 days (10, 25 or 50 μg/100 g body weight/day) and then calcium level in the bone tissue, determination of alkaline phosphatase activity (enzyme for the acceleration of the calcification of bones) and the amount of deoxyribonucleic acid (DNA: index of the number of the cells in the bone tissue) were determined by the same methods as those in Example 1. In each test group, the determination was conducted 6 times and the results were represented by the average value and the standard error. The significant difference was determined by Student's t-test. The result was compared with that of the control. When P value was not higher than 0.01 (*) as compared with the control, the results were statistically significant.

The test system of assay [3] is rats, femoral metaphysis tissue. Put plainly: Oral administration to rats: bone alkaline phosphatase activity in metaphysis tissue. The assay is classed as in vivo, Wistar male rats. The settings on record: for Bone alkaline phosphatase activity: metaphysis tissue. The method, then:
as §2, §3, §4

For assay [4], the system named is rats, femoral diaphysis tissue. Put plainly: Oral administration to rats: bone calcium level in diaphysis tissue. The assay is classed as in vivo, Wistar male rats. The conditions noted are these: for Bone calcium level: diaphysis tissue. The method, then:
as §1, §3, §4

The subject of assay [5] is rats, femoral metaphysis tissue. Put plainly: Oral administration to rats: bone DNA level in metaphysis tissue. The assay is classed as in vivo, Wistar male rats. The conditions noted are these: for Bone DNA level: metaphysis tissue. The protocol:
DNA level was determined as an index of the number of cells in the bone tissue. After the culture in an incubator, the tissue pieces were washed with 0.25 M sucrose solution and then the wet weight of them was determined. They were pulverized in 4 ml of 0.1 N NaOH. After the osmosis at 4° C. for 24 hours, the liquid mixture was centrifuged. The supernatant was taken as the sample and determined by a method of Ceriotti et al. (J. Biol. Chem., 241; 34-77, 1951). Namely, 1 ml of concentrated hydrochloric acid and 1 ml of 0.04% indole solution were added to 2 ml of the sample and then the resultant mixture was heated to 100° C. in boiling water. After quenching followed by the extraction with 4 ml of chloroform, the chloroform layer was taken to determine bone DNA level with a spectrophotometer (490 nm).
as §3, §4

The mark [6] stands for this setting: 10, 25 or 50 μg/100 g body weight/day, 7 days.
The mark [7] stands for this setting: oral 10 μg/100 g body weight/day for 7 days.
Where [8] appears, read: oral 25 μg/100 g body weight/day for 7 days.
The mark [9] stands for this setting: oral 50 μg/100 g body weight/day for 7 days.

Marks after values point to notes of the source that are not given here.

As for `CC1=C(/C=C/C(C)=C/C=C/C(C)=C/C=C/C=C(C)/C=C/C=C(C)/C=C/C2=C(C)C[C@@H](O)CC2(C)C)C(C)(C)CCC1` [β-cryptoxanthin], the “Control of prostaglandin E2-caused reduction of calcium level in the bone tissue (in words)” value in assay [1] (metaphysis tissue, β-cryptoxanthin 10^−5 to 10^−6 M (so in the source) with prostaglandin E2 10^−5 M) is recorded as “completely controlled”. Also, the “Control of PTH-caused reduction of calcium level in the metaphysis tissue (in words)” value in assay [1] (β-cryptoxanthin 10^−8 to 10^−6 M in the presence of PTH) is listed as “significantly controlled”. Moreover, the “Effect on alkali phosphatase activity in the diaphysis tissue after oral administration (in words)” value in assay [2] (setting [6]) is “significantly increased”. Besides, the “Bone alkaline phosphatase activity” value in assay [2] (setting [7]) was 2.38 ± 0.019* μmol/min/mg protein; in assay [2] (setting [8]), 2.35 ± 0.021* μmol/min/mg protein; in assay [2] (setting [9]), 1.85 ± 0.025* μmol/min/mg protein; in assay [3] (setting [7]), 2.21 ± 0.023* μmol/min/mg protein; in assay [3] (setting [8]), 2.545 ± 0.029* μmol/min/mg protein; in assay [3] (setting [9]), 1.92 ± 0.015* μmol/min/mg protein. Besides, the “Effect on alkali phosphatase activity in the metaphysis tissue after oral administration (in words)” value in assay [3] (setting [6]) is recorded as “significantly increased”. Further, the “Effect on calcium level in the diaphysis tissue after oral administration (in words)” value in assay [4] (setting [6]) was “significantly increased”. Further, the Bone calcium level in assay [4] (setting [7]) was 232.8 ± 3.00* mg/g dry weight; in assay [4] (setting [8]), 248.3 ± 5.10* mg/g dry weight; in assay [4] (setting [9]), 247.5 ± 4.20* mg/g dry weight. In assay [5] (setting [6]), the “Effect on DNA in the bone tissue, metaphysis, after oral administration (in words)” value was “significantly increased”. For the same molecule, the “Bone DNA level” value in assay [5] (setting [7]) is 4.10 ± 0.24* mg/g bone wet weight; in assay [5] (setting [8]), 4.25 ± 0.21* mg/g bone wet weight; in assay [5] (setting [9]), 4.01 ± 0.18* mg/g bone wet weight.

The values above are taken from patent US8148431B2, “Osteogenesis promoter containing β-cryptoxanthin as the active ingredient” (Kemin Health, L.C., priority 2002, dated 2012).
